# Assay results as given in patent US20160355530A1, “HEPATITIS C INHIBITORS AND USES THEREOF” (AbbVie Inc., priority 2010, published 2016).
# Where two headings read alike, the source gives them in different places.
# Columns and labels:
# [1] = biological target: T1, HCV NS5B polymerase 1b BK strain (Hepatitis C virus genotype 1b, UniProt P26663); test: HCV NS5B polymerase enzymatic inhibition assay, strain 1b BK; type: biochemical; settings: enzyme, strain 1b BK; read-out: HCV Polymerase Strain 1b BK IC50
# T1 construct: six-histidine tag; made in house; host or cells: E. coli
# T1 sequence (P26663 2420-2989): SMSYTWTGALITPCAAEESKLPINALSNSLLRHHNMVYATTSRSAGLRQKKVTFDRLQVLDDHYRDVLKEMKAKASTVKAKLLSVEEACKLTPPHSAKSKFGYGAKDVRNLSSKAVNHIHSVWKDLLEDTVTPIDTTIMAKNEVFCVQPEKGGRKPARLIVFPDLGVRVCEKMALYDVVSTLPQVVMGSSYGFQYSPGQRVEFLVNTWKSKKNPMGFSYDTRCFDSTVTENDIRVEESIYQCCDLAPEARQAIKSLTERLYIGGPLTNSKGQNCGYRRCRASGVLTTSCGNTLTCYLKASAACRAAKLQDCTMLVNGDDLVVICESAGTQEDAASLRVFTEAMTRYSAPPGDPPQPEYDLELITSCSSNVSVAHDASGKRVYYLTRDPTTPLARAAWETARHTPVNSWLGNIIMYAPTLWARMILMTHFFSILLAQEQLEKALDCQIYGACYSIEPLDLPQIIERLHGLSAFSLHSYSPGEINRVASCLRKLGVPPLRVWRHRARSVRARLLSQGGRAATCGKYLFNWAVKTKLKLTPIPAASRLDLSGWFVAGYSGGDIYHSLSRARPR
# Method: (§1) Purified HCV NS5B polymerase enzymes were used for polymerase inhibition assays. All recombinant HCV polymerases contained the first 570 amino acids of the 591 amino acid native protein sequence and a six-histidine tag at the N-terminus or C-terminus to facilitate purification by affinity chromatography. The DNA nucleotide sequence for the HCV polymerase 1b BK strain was codon optimized for expression in E. coli. A synthetic gene was prepared from a series of overlapping oligonucleotides that were filled in using a DNA polymerase and amplified by PCR. The patient isolate HCV polymerases were cloned by RT-PCR methods using HCV RNA extracted from the serum of infected subjects obtained from ProMedDx and BioCollections (genotypes 2a, 2b, 3a, and 4a). Laboratory strains were cloned from plasmid DNA (1a-H77 or 1a-H77-C316Y) or from existing replicon cells (1b Rice). In all cases the amplified DNA was cloned into a protein expression vector (typically a pET vector from Novagen) and then multiple clones were sequenced to identify one whose NS5B sequence agreed with the population sequence. This sequence-confirmed clone was then transfected into E. coli for protein expression and purification. E. coli cultures were grown to a maximum optical density (OD) of 2-3 and then induced with 0.4 mM isopropyl beta-D-thiogalactopyranoside (IPTG) and grown for 20 hours at 20° C.
# (§2) Proteins were purified using nickel affinity chromatography, and additional column steps were added including, ion exchange, size exclusion, hydrophobic ion, and poly-U affinity chromatography, as needed, depending on the sample being purified. The template RNA used in the polymerase enzymatic assay was a 2.1 kb construct that corresponds to the 3′-end of an HCV genotype 1b negative strand RNA.
# (§3) The reaction was initiated by the addition of 20 μM CTP, 20 μM ATP, 0.284 μM (0.5 μCi) of 5,6-[^3H] UTP, 5 nM template RNA and 0.1 U/μL RNase inhibitor (RNasin, Promega), and allowed to proceed for three hours at 30° C. The final reaction volume was 50 μL. The reaction was terminated by the addition of 50 uL of 4 mM spermine in 10 mM Tris-HCl, pH 7.5, 1 mM EDTA. The quenched reaction was allowed to incubate for at least 15 minutes at room temperature, and then the precipitated RNA was captured by filtration through a glass fiber filter (GF/B, Millipore) in a 96 well format. The filter plate was washed five times with 200 μL of 2 mM spermine, 10 mM Tris-HCl, pH 8.0, 1 mM EDTA, and two times with ethanol. After drying thoroughly in air, 30 μL of Microscint-20 scintillation cocktail (Perkin Elmer) was added to each well, and the retained cpm were determined by scintillation counting. IC50 values were determined by nonlinear regression.
# (§4) % Inhibition=100*[[I]/([I]+[IC50])] equation 1
# (§5) V=kcat[S]/2(Km+[S])*(sqrt((IC50+I−E)̂2+(4*IC50*E))−(IC50+I−E)) equation 2
# [2] = tested on: HCV NS5B polymerase 1a-H77-C316Y; test: biochemical; design: species or system HCV genotype 1a; settings: ratio of enzyme IC50s, 1a H77-C316Y / 1a H77
# Method: as §1, §2, §3, §4, §5
# [3] = biological target: T2, HCV NS5B polymerase 1a-H77 (Hepatitis C virus genotype 1a, UniProt P27958); test: biochemical; design: species or system HCV genotype 1a; settings: enzyme, strain 1a H77; read-out: HCV Polymerase Strain 1a H77 IC50
# T2 construct: six-histidine tag; made in house; host or cells: E. coli
# T2 sequence (P27958 2421-2990): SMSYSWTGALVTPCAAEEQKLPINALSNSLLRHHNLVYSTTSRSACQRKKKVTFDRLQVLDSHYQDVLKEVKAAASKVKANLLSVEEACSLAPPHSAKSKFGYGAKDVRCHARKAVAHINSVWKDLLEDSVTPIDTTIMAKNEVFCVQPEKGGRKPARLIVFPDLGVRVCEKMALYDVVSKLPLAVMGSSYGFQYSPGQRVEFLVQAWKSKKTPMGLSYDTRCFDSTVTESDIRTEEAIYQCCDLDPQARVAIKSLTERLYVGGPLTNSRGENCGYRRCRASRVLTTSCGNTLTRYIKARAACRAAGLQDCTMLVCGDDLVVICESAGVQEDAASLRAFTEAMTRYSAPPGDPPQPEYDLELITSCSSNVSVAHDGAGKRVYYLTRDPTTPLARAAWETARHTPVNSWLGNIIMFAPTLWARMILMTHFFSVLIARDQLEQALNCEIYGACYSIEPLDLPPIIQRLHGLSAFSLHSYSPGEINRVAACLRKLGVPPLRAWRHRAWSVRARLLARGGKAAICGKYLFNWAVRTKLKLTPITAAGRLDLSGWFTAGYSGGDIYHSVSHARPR
# Method: as §1, §2, §3, §4, §5
# [4] = biological target: T3, HCV NS5B polymerase 1a-H77-C316Y (Hepatitis C virus genotype 1a, UniProt P27958, C2736Y); test: biochemical; design: species or system HCV genotype 1a
# T3 construct: six-histidine tag; made in house; host or cells: E. coli
# T3 sequence (P27958 2421-2990 C2736Y): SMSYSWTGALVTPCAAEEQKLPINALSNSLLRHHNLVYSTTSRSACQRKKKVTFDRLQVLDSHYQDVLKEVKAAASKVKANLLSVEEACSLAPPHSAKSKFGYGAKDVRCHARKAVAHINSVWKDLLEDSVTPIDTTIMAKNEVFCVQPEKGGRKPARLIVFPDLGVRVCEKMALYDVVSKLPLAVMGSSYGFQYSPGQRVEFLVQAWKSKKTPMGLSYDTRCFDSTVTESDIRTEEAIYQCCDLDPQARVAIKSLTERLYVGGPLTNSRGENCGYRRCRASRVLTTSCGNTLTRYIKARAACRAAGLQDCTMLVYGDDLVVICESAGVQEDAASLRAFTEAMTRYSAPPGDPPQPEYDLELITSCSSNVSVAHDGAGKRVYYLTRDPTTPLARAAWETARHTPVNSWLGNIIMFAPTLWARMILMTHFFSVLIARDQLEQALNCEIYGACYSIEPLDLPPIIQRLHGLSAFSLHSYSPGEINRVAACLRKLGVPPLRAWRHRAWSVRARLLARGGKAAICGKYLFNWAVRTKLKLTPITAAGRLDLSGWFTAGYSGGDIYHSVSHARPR
# Method: as §1, §2, §3, §4, §5
# [5] = tested on: HCV 1b-BB7 subgenomic replicon; test: microbe, parasite or virus in culture; type: cell-based, HCV genotype 1b; settings: Hepatitis C virus, stable replicon
# [6] = tested on: HCV 1a-H77 subgenomic replicon; test: microbe, parasite or virus in culture; type: cell-based, HCV genotype 1a; settings: Hepatitis C virus, stable replicon
# [7] = strain 1b BB7, 5% FBS + 40% human plasma, read-out: 1b BB7 5% FBS + 40% Human Plasma EC50
# [8] = strain 1b BB7, 5% FBS, no human plasma, read-out: 1b BB7 5% FBS EC50
# [9] = strain 1b BB7, 5% FBS, read-out: 1b BB7 5% FBS EC50
# [10] = 5% FBS, absence of human plasma, read-out: Stable Replicon 1a H77 5% FBS EC50
# [11] = strain 1a H77, 5% FBS + 40% human plasma, read-out: 1a H77 5% FBS + 40% Human Plasma EC50
# [12] = strain 1a H77, 5% FBS, no human plasma, read-out: 1a H77 5% FBS EC50
# [13] = strain 1a H77, 5% FBS, read-out: 1a H77 5% FBS EC50
structure (smiles),measurement,setting,value
"COc1ccc(CN(c2cc3oc(-c4ccc(F)cc4)c(C4=NC(C)CN4)c3cc2C2CC2)S(C)(=O)=O)cc1 (centres unmarked) [Example 2a, N-[5-cyclopropyl-2-(4-fluorophenyl)-3-(4-methyl-4,5-dihydro-1H-imidazol-2-yl)-1-benzofuran-6-yl]-N-(4-methoxybenzyl)methanesulfonamide]",IC50,[1],0.055 µM
same,C316Y/1a Fold Resistance,[2],15 fold
same,IC50,[3],15 nM
same,IC50,[4],224 nM
"CC(C)(C)[Si](C)(C)OCCCCN(c1cc2oc(-c3ccc(F)cc3)c(-c3ncc[nH]3)c2cc1C1CC1)S(C)(=O)=O [Example 42, N-(4-{[tert-butyl(dimethyl)silyl]oxy}butyl)-N-[5-cyclopropyl-2-(4-fluorophenyl)-3-(1H-imidazol-2-yl)-1-benzofuran-6-yl]methanesulfonamide]",EC50,[5]; [7],3.39 µM
same,EC50,[5]; [8],0.119 µM
same,EC50,[5]; [9],0.119 µM
same,EC50,[6]; [10],0.214 µM
same,EC50,[6]; [11],7.41 µM
same,EC50,[6]; [12],0.214 µM
same,EC50,[6]; [13],0.214 µM
same,IC50,[1],0.781 µM
same,IC50,[3],83 nM
"CS(=O)(=O)N(CN1C(=O)c2ccccc2C1=O)c1cc2oc(-c3ccc(F)cc3)c(-c3ncc[nH]3)c2cc1C1CC1 [Example 82, N-[5-cyclopropyl-2-(4-fluorophenyl)-3-(1H-imidazol-2-yl)-1-benzofuran-6-yl]-N-[(1,3-dioxo-1,3-dihydro-2H-isoindol-2-yl)methyl]methanesulfonamide]",EC50,[5]; [8],1.58 µM
same,EC50,[5]; [9],1.58 µM
same,EC50,[6]; [10],2.63 µM
same,EC50,[6]; [12],2.63 µM
same,EC50,[6]; [13],2.63 µM
same,IC50,[1],3 µM
same,IC50,[3],350 nM
"CC(C)CCN(c1cc2oc(-c3ccc(F)cc3)c(C3=NOC(C)(C)N3)c2cc1C1CC1)S(C)(=O)=O [Example 152, N-[5-cyclopropyl-3-(5,5-dimethyl-4,5-dihydro-1,2,4-oxadiazol-3-yl)-2-(4-fluorophenyl)-1-benzofuran-6-yl]-N-(3-methylbutyl)methanesulfonamide]",EC50,[5]; [8],10 µM
same,EC50,[5]; [9],10 µM
same,EC50,[6]; [10],10 µM
same,EC50,[6]; [12],10 µM
same,EC50,[6]; [13],10 µM
same,IC50,[1],3.6 µM
same,IC50,[3],118 nM
"CCCc1nc(-c2c(-c3ccc(F)cc3)oc3cc(N(CCC(C)C)S(C)(=O)=O)c(C4CC4)cc23)no1 [Example 153, N-[5-cyclopropyl-2-(4-fluorophenyl)-3-(5-propyl-1,2,4-oxadiazol-3-yl)-1-benzofuran-6-yl]-N-(3-methylbutyl)methanesulfonamide]",IC50,[1],200 µM
same,IC50,[3],179000 nM
"CCCC1NC(c2c(-c3ccc(F)cc3)oc3cc(N(CCC(C)C)S(C)(=O)=O)c(C4CC4)cc23)=NO1 (centres unmarked) [Example 154, N-[5-cyclopropyl-2-(4-fluorophenyl)-3-(5-propyl-4,5-dihydro-1,2,4-oxadiazol-3-yl)-1-benzofuran-6-yl]-N-(3-methylbutyl)methanesulfonamide]",IC50,[1],63.3 µM
same,IC50,[3],21300 nM
"CCC1NC(c2c(-c3ccc(F)cc3)oc3cc(N(CCC(C)C)S(C)(=O)=O)c(C4CC4)cc23)=NO1 (centres unmarked) [Example 155, N-[5-cyclopropyl-3-(5-ethyl-4,5-dihydro-1,2,4-oxadiazol-3-yl)-2-(4-fluorophenyl)-1-benzofuran-6-yl]-N-(3-methylbutyl)methanesulfonamide]",EC50,[5]; [7],10 µM
same,EC50,[5]; [8],6.25 µM
same,EC50,[5]; [9],6.25 µM
same,EC50,[6]; [10],3.06 µM
same,EC50,[6]; [11],10 µM
same,EC50,[6]; [12],3.06 µM
same,EC50,[6]; [13],3.06 µM
same,C316Y/1a Fold Resistance,[2],10 fold
same,IC50,[3],53 nM
same,IC50,[4],554 nM
"COc1ccc(CN(c2cc3oc(-c4ccc(F)cc4)c(C4=NOCC(=O)N4)c3cc2C2CC2)S(C)(=O)=O)cc1 [Example 160, N-[5-cyclopropyl-2-(4-fluorophenyl)-3-(5-oxo-5,6-dihydro-4H-1,2,4-oxadiazin-3-yl)-1-benzofuran-6-yl]-N-(4-methoxybenzyl)methanesulfonamide]",EC50,[5]; [7],9.28 µM
same,EC50,[5]; [8],0.604 µM
same,EC50,[5]; [9],0.604 µM
same,EC50,[6]; [10],2.16 µM
same,EC50,[6]; [11],10 µM
same,EC50,[6]; [12],2.16 µM
same,EC50,[6]; [13],2.16 µM
same,IC50,[1],0.93 µM
same,IC50,[3],110 nM
"CS(=O)(=O)Nc1cc2oc(-c3ccc(F)cc3)c(-c3nc(Cl)c(Cl)[nH]3)c2cc1C1CC1 [Example 163, N-[5-cyclopropyl-3-(4,5-dichloro-1H-imidazol-2-yl)-2-(4-fluorophenyl)-1-benzofuran-6-yl]methanesulfonamide]",EC50,[5]; [7],10 µM
same,EC50,[5]; [8],5.4 µM
same,EC50,[5]; [9],5.4 µM
same,EC50,[6]; [10],7.83 µM
same,EC50,[6]; [11],10 µM
same,EC50,[6]; [12],7.83 µM
same,EC50,[6]; [13],7.83 µM
same,IC50,[1],0.555 µM
same,IC50,[3],212 nM
"CS(=O)(=O)Nc1cc2oc(-c3ccc(F)cc3)c(-c3nc(Cl)c[nH]3)c2cc1C1CC1 [Example 164, N-[3-(4-chloro-1H-imidazol-2-yl)-5-cyclopropyl-2-(4-fluorophenyl)-1-benzofuran-6-yl]methanesulfonamide]",EC50,[5]; [7],10 µM
same,EC50,[5]; [8],1 µM
same,EC50,[5]; [9],1 µM
same,EC50,[6]; [10],1 µM
same,EC50,[6]; [11],10 µM
same,EC50,[6]; [12],1 µM
same,EC50,[6]; [13],1 µM
same,IC50,[1],0.906 µM
same,IC50,[3],136 nM
"CS(=O)(=O)Nc1cc2oc(-c3ccc(F)cc3)c(-c3nc(Br)c(Br)[nH]3)c2cc1C1CC1 [Example 165, N-[5-cyclopropyl-3-(4,5-dibromo-1H-imidazol-2-yl)-2-(4-fluorophenyl)-1-benzofuran-6-yl]methanesulfonamide]",IC50,[1],2.7 µM
same,IC50,[3],1500 nM
"Cc1ccc(C)n1-c1ccc2c(-c3ncc[nH]3)c(-c3ccccc3)oc2c1 [Example 166, 2-[6-(2,5-dimethyl-1H-pyrrol-1-yl)-2-phenyl-1-benzofuran-3-yl]-1H-imidazole]",IC50,[1],7 µM
same,IC50,[3],1600 nM
"CC(C)CCN(c1cc2oc(-c3ccc(F)cc3)c(-c3nc(C(F)(F)F)c[nH]3)c2cc1C1CC1)S(C)(=O)=O [Example 171, N-{5-cyclopropyl-2-(4-fluorophenyl)-3-[4-(trifluoromethyl)-1H-imidazol-2-yl]-1-benzofuran-6-yl}-N-(3-methylbutyl)methanesulfonamide]",EC50,[5]; [8],9.27 µM
same,EC50,[5]; [9],9.27 µM
same,EC50,[6]; [10],7.62 µM
same,EC50,[6]; [12],7.62 µM
same,EC50,[6]; [13],7.62 µM
same,IC50,[1],88.7 µM
same,IC50,[3],2860 nM
"COc1ccc(CN(c2cc3oc(-c4ccc(F)cc4)c(-c4nc(C)c(C)[nH]4)c3cc2C2CC2)S(C)(=O)=O)cc1 [Example 186, N-[5-cyclopropyl-3-(4,5-dimethyl-1H-imidazol-2-yl)-2-(4-fluorophenyl)-1-benzofuran-6-yl]-N-(4-methoxybenzyl)methanesulfonamide]",IC50,[1],4.5 µM
same,IC50,[3],4500 nM
"Cc1nc(-c2c(-c3ccc(F)cc3)oc3cc(NS(C)(=O)=O)c(C4CC4)cc23)[nH]c1C [Example 192, N-[5-cyclopropyl-3-(4,5-dimethyl-1H-imidazol-2-yl)-2-(4-fluorophenyl)-1-benzofuran-6-yl]methanesulfonamide]",IC50,[1],18 µM
same,IC50,[3],10300 nM
